Like-named read-outs stand apart in the source and are kept apart here.
Tests used:
[1] = Stability in phosphate buffered saline; assay type: physicochemical; details: for half-life at 150 μM: phosphate buffered saline, read-out: half-life (t1/2); for half-life at 150 μM / half-life (t1/2): first-order kinetics, UV 280 nm, 150 μM; for stability in phosphate buffered saline (in words): first time point, approx. 15 min after adding PBS; for starting material remaining (in words): after 26 h incubation in PBS
Method: The stabilities of the compounds were measured in PBS, which was prepared from commercially available tablets that were dissolved in ultrapure water. The phosphate concentration was 0.01 M, the pH was 7.4, and the potassium and sodium chloride concentrations were 0.0027 and 0.137 M, respectively. […] The compounds were dissolved in 2 mL of the PBS solution in Eppendorf tubes, vortexed for approximately 15 min, and filtered through a 0.2 μm PTFE filter to a 2 mL UPLC vial. The solutions were analyzed with the UPLC-DAD-HESI-Orbitrap-MS instrument using the longer phenyl column (section 2.4), and repeated injections were done every 47.5 min for approximately 12 h. […] The UV chromatograms at 280 nm were integrated using the QuanBrowser module in Xcalibur software (version 4.1.31.9), and the main degradation products were identified in QualBrowser by their high-resolution mass spectra and UV spectra. With each compound, the measured areas were transformed to proportional areas by dividing all areas with the initial area in the first injection of the time series, and the data was further loge transformed and fitted with first-order linear regression curves. The regression curves were supplemented with 95% confidence intervals to visualize the uncertainty in the fitted curves. The half-lives were calculated from the slope (k) parameters of the linear regression model using the following equation: [drawing 1]

[2] = biological target: T1, bovine serum albumin (BSA) (Bos taurus, UniProt P02769); experiment: Protein precipitation capacity (PPC), turbidimetric well-plate reader assay with BSA, log-normal dose–response model; assay type: biochemical; details: SE in parentheses; for ED90 (mM) / EC50: BSA 0.1 mM; for EC50: concentration giving 50% of maximal absorbance (420 nm haze), read-out: ED50 (the source's name); for slope: slope parameter of log-normal dose–response model
T1 construct: purchased Sigma-Aldrich (MO, USA)
Method: (§1) PPC was measured by using the turbidimetric well-plate reader assay of Engström et al. (2019), with few modifications to the volumes of the reactants and to the number of replicates, for instance. The analyzes of the supernatants were done following Engström et al. (2022).[21] Briefly, 75 μL of BSA solution and 75 μL of the solutions of compounds 2–14 were pipetted to well plates, and the intensity of the forming haze was measured periodically at 420 nm using a well-plate reader. The PPC of the PC analogue 1 was not measured because it was not soluble in suitable solvents. The reactions were monitored for 30 min, and the highest intensities were recorded. A single background measurement was done at each concentration with all the components in the wells but the BSA. The reactions were done in triplicates (and in duplicates with PC C1), and the concentrations of the compounds 2–14 in the reaction mixtures were 0.25 0.65, 1.05, 1.45, 1.85, and 2.25 mM. The concentration of the BSA was kept constant at 0.1 mM. Therefore, the tested molar ratios to BSA were 2.5:1, 6.5:1, 10.5:1, 14.5:1, 18.5:1, and 22.5:1. After the 30 min, the supernatants and precipitates of the replicates were combined in a 1.5 mL Eppendorf tube and separated by centrifuging. The supernatants were then analyzed by UPLC–DAD using the shorter phenyl column (section 2.4) to quantify the leftover compounds 2–14 and BSA. Leftover BSA was quantified using a separately prepared linear calibration curve (1–125 μM), and the compounds 2–14 were quantified by analyzing the background solutions from the well-plate reader assay and constructing a calibration curve from these analyzes. BSA was quantified at 280 nm and compounds 2–14 at 280–320 nm. The wavelength of maximal UV absorption for compounds 2–14 could not be utilized in quantification because the diode array detector was saturated at the optimal wavelengths due to the high concentrations used in the well-plate reader assay. Therefore, off-optimal wavelengths were chosen for quantification separately for each compound 2–14 to reduce intensities and to obtain linear fits for calibration curves.
All statistical analyzed were performed with R (version 4.2.2) in the integrated development environment Rstudio (version 2022.12.0.353).[23],[24] The PPC data was fitted with a dose–response model using the package drc.[25] Various models, e.g., logit and log-normal models, were compared using the mselect function, and the best fitting model was chosen based on the Akaike’s information criterion and residual error when comparing all models, and log-likelihood was used when comparing nested models. All compounds were assumed to have the same upper and lower asymptotes; the former was estimated from the experimental data, and the latter was fixed at zero.

[3] = Octanol–water partition, shake-flask method; assay type: physicochemical; details: 200 μM, n-octanol/water, 2 h mixing, SE in parentheses; for logP at 2 h: read-out: log P (log10KOW)
Method: The shake-flask method was done using 2 mL Eppendorf tubes and three replicates. […] After mixing, aliquots of 500 μL were transferred to new Eppendorf tubes, and 500 μL of n-octanol was added that had been saturated with water. The solvent systems were mixed in a vortex mixer for 2 h, and then both the water and the n-octanol layers as well as the initial water solution were analyzed by UPLC–DAD using the shorter phenyl column (section 2.4). The chromatograms were integrated using TargetLynx software (version 4.2), and the octanol–water partition coefficient, log P, was calculated as the log10 of the ratio of area in n-octanol phase to the area in water phase. Recovery % was calculated by summing the areas in both phases and dividing the summation with the area measured from the initial water phase.

[4] = Octanol–water partition, shake-flask method; assay type: physicochemical; details: for logP / KOW: tentative values, experiment shorter than two hours because the compounds degraded; for logP: read-out: log P (log10KOW)
[5] = biological target: T1, bovine serum albumin (BSA); experiment: UPLC–DAD analysis of supernatants from the PPC experiment (proportion of precipitated BSA); assay type: biochemical
Method: as §1

[6] = pH 7.4, PBS pH 7.4, 0.01 M phosphate

T1 sequence (P02769 25-607): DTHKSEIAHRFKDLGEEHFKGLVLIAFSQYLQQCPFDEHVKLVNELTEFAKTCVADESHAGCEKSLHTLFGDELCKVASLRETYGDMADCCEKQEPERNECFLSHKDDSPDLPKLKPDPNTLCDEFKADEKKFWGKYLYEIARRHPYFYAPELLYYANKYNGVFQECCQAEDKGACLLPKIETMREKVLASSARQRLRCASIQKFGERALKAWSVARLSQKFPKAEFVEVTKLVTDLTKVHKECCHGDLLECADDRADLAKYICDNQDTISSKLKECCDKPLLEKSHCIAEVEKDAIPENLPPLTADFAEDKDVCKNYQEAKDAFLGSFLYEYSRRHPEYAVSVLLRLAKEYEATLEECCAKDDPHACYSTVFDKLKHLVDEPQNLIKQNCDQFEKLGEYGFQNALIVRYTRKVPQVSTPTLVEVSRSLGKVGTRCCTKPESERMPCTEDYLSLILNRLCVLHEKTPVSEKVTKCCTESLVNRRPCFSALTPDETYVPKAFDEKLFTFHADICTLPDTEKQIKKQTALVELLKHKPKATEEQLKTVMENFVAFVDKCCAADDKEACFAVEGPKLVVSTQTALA

SMILES | half-life at 150 μM [1, 6] [h] | ED90 (mM) [2] | EC50 [2] [µM] | slope [2] | KOW [3] | logP at 2 h [3] | logP ([4]; n-octanol/water) | KOW [4] | stability in phosphate buffered saline (in words) [1] | proportion of BSA precipitated ([5]; highest tested concentration of 2.25 mM (molar ratio to BSA 23:1)) | log P (log10KOW) ([4]; 200 μM, n-octanol/water, 2 h mixing, SE in parentheses) | starting material remaining (in words) [1] | half-life at 150 μM ([1]; PBS pH 7.4, 0.01 M phosphate) [h] | activity based on the proportions of precipitated BSA (in words) [5] | half-life (t1/2) ([1]; PBS pH 7.4, 0.01 M phosphate) [h]
O=C(O)C(c1c(O)cc(O)c2c1O[C@H](c1ccc(O)c(O)c1)[C@@H](O)C2)c1c(O)cc(O)c2c1O[C@H](c1ccc(O)c(O)c1)[C@@H](O)C2 [Compound 3] | 6.27 | 3.34 (0.09) mM | 2030 | 2.57 (0.10) | 0.04 (0.00) | -1.37 | – | – | – | – | – | – | – | – | –
Oc1ccc([C@H]2Oc3c(c(O)cc(O)c3C(c3cc(O)c(O)c(O)c3)c3c(O)cc(O)c4c3O[C@H](c3ccc(O)c(O)c3)[C@H](O)C4)C[C@H]2O)cc1O [Compound 10] | < 0.25 | 2.41 (0.05) mM | 1440 | 2.48 (0.08) | – | – | -1.18 | 0.07 (0.00) | completely degraded already at the first time point | – | – | – | – | – | –
Oc1cc(O)c2c(c1)O[C@H](c1ccc(O)c(O)c1)[C@H](O)[C@H]2c1c(O)cc(O)c2c1O[C@H](c1ccc(O)c(O)c1)[C@H](O)[C@H]2c1c(O)cc(O)c2c1O[C@H](c1ccc(O)c(O)c1)[C@H](O)C2 [Compound 13, PC C1, reference compound] | 30.9 | 1.57 (0.06) mM | 770 | 1.79 (0.08) | 0.07 (0.00) | -1.17 | – | – | – | almost all | – | – | – | – | –
O=C(O)C(c1c(O)cc(O)c2c1O[C@H](c1ccc(O)c(O)c1)[C@H](O)C2)c1c(O)cc(O)c2c1O[C@H](c1ccc(O)c(O)c1)[C@H](O)C2 [Compound 4, Epicatechin–carboxymethine–epicatechin] | 7 | 3.30 (0.08) mM | 2030 | 2.64 (0.11) | 0.02 (0.00) | -1.78 | – | – | – | – | – | – | – | – | –
Oc1cc(O)c2c(c1)O[C@H](c1ccc(O)c(O)c1)[C@@H](O)C2 [Compound 15, catechin, reference compound] | – | – | – | – | 2.61 (0.03) | – | – | – | – | – | 0.42 (0.00) | majority of the starting materials remained | 22.3 | – | –
Oc1ccc([C@H]2Oc3c(c(O)cc(O)c3C(c3ccco3)c3c(O)cc(O)c4c3O[C@H](c3ccc(O)c(O)c3)[C@H](O)C4)C[C@H]2O)cc1O [Compound 6, Epicatechin–furanmethine–epicatechin] | 5.82 | 3.32 (0.09) mM | 1830 | 2.15 (0.08) | 2.08 (0.00) | 0.32 | – | – | – | – | – | – | – | – | –
Oc1cc(O)c2c(c1)O[C@H](c1ccc(O)c(O)c1)[C@H](O)C2 [Compound 16, epicatechin, reference compound] | – | – | – | – | – | – | – | – | – | – | – | majority of the starting materials remained | 15 | – | –
Oc1cc(O)c2c(c1)O[C@H](c1ccc(O)c(O)c1)[C@@H](O)[C@@H]2c1c(O)cc(O)c2c1O[C@H](c1ccc(O)c(O)c1)[C@@H](O)C2 [Compound 11, PC B3, reference compound] | 8.98 | – | – | – | 0.16 (0.00) | -0.79 | – | – | – | – | – | – | – | practically inactive | –
Oc1ccc(C(c2c(O)cc(O)c3c2O[C@H](c2ccc(O)c(O)c2)[C@H](O)C3)c2c(O)cc(O)c3c2O[C@H](c2ccc(O)c(O)c2)[C@H](O)C3)cc1O [Compound 8, Epicatechin–catecholmethine–epicatechin] | 1.4 | 2.61 (0.06) mM | 1500 | 2.30 (0.08) | 0.34 (0.00) | -0.47 | – | – | – | – | – | – | – | – | 0.917 to 1.4
Oc1ccc([C@H]2Oc3c(c(O)cc(O)c3C(c3cc(O)c(O)c(O)c3)c3c(O)cc(O)c4c3O[C@H](c3ccc(O)c(O)c3)[C@@H](O)C4)C[C@@H]2O)cc1O [Compound 9] | < 0.25 | 2.61 (0.06) mM | 1400 | 2.04 (0.06) | – | – | -0.85 | 0.14 (0.01) | completely degraded already at the first time point | – | – | – | – | – | –
Oc1ccc([C@H]2Oc3c(Cc4c(O)cc(O)c5c4O[C@H](c4ccc(O)c(O)c4)[C@H](O)C5)c(O)cc(O)c3C[C@H]2O)cc1O [Compound 2, Epicatechin–methylene–epicatechin] | 2.05 | 3.45 (0.10) mM | 2180 | 2.80 (0.13) | 1.46 (0.01) | 0.16 | – | – | – | – | – | – | – | – | –
Oc1cc(O)c2c(c1)O[C@H](c1ccc(O)c(O)c1)[C@H](O)[C@H]2c1c(O)cc(O)c2c1O[C@H](c1ccc(O)c(O)c1)[C@H](O)C2 [Compound 12, PC B2, reference compound] | 11.6 | – | – | – | 0.13 (0.00) | -0.87 | – | – | – | – | – | – | – | practically inactive | –
Oc1ccc([C@H]2Oc3c(c(O)cc(O)c3C(c3ccco3)c3c(O)cc(O)c4c3O[C@H](c3ccc(O)c(O)c3)[C@@H](O)C4)C[C@@H]2O)cc1O [Compound 5, Catechin–furanmethine–catechin] | 8.85 | 2.58 (0.06) mM | 1390 | 2.08 (0.07) | 5.28 (0.02) | 0.72 | – | – | – | – | – | – | – | – | –
Oc1ccc(C(c2c(O)cc(O)c3c2O[C@H](c2ccc(O)c(O)c2)[C@@H](O)C3)c2c(O)cc(O)c3c2O[C@H](c2ccc(O)c(O)c2)[C@@H](O)C3)cc1O [Compound 7, Catechin–catecholmethine–catechin] | 0.917 | 2.53 (0.07) mM | 1290 | 1.90 (0.06) | 0.79 (0.00) | -0.1 | – | – | – | – | – | – | – | – | 0.917 to 1.4
Oc1ccc([C@H]2Oc3c(Cc4c(O)cc(O)c5c4O[C@H](c4ccc(O)c(O)c4)[C@@H](O)C5)c(O)cc(O)c3C[C@@H]2O)cc1O [Compound 1] | 3.45 | – | – | – | 5.00 (0.05) | 0.7 | – | – | – | – | – | – | – | – | –

— paper PMC10722540, “Red Wine Inspired Chemistry: Hemisynthesis of Procyanidin Analogs and Determination of Their Protein Precipitation Capacity, Octanol–Water Partition, and Stability in Phosphate-Buffered Saline” (Journal of Agricultural and Food Chemistry, 2023)
